We go through 17 compounds from US10316017B2, “COT modulators and methods of use thereof” (Gilead Sciences, Inc., priority 2015, dated 2019).

Each structure is given as a SMILES string.

The subject of experiment [1] is TNFα production in LPS-stimulated human monocytes. Put plainly: Cot Monocyte TNFα Cell Based Assay. Conditions: Homo sapiens, Monocyte, TNFα in LPS-stimulated human monocytes; read-out: EC50 TNF. The method in brief:
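5,000 cells/well; cmpd 1 h, 37 °C, 0.5% DMSO final; LPS 50 pg/ml, 4 h, 37 °C; media TNFα by HTRF sandwich (cryptate/XL665), RT overnight; % control vs unstimulated/stimulated wells.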

For experiment [2], the target named is T1, human Cot catalytic domain (30-397 amino acids) (Homo sapiens, UniProt P41279).
T1 construct: Purified recombinant human Cot catalytic domain (30-397 amino acids) was purchased from Cama Biosciences; purchased Cama Biosciences (so in the source)
Description: High Throughput Cot Biochemical Assay (KinEASE TR-FRET). The conditions noted are these: Cot biochemical HTRF (KinEASE TR-FRET) assay; read-out: IC50 HTRF. The method in brief:
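First, purified human Cot (aa 30-397) at 5 nM phosphorylates an XL665-labeled STK3 peptide (1 μM) at 400 μM ATP, pH 7.0, 0.1% DMSO. Then a europium-conjugated phospho-specific antibody binds the product, giving the TR-FRET signal.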
On the technique in general: TR-FRET usually uses a lanthanide donor and a delayed reading to cut background.

T1 sequence (P41279 30-397): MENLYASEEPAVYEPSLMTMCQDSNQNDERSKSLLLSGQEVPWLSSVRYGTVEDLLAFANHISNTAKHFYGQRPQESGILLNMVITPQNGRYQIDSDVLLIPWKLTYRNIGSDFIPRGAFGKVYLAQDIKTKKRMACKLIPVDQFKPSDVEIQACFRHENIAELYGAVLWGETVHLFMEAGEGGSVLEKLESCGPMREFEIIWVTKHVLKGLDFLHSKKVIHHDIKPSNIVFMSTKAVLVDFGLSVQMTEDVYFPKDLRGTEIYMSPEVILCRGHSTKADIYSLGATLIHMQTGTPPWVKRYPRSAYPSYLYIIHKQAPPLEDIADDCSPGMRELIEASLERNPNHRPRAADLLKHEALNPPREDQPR

Consider `N#Cc1cnc2c(Cl)cc(N[C@@H](c3cccc(N4CCCC4=O)c3)c3c[nH]nn3)cc2c1Nc1ccc(Cl)c(Cl)c1F` [Example 531, (S)-8-chloro-4-((3,4-dichloro-2-fluorophenyl)amino)-6-(((3-(2-oxopyrrolidin-1-yl)phenyl)(1H-1,2,3-triazol-4-yl)methyl)amino)quinoline-3-carbonitrile], for which the concentration for a half-maximal effect (EC50) (usually the concentration at which the effect is half-maximal) in experiment [1] turned out to be 491 nM. Moreover, in experiment [2], the 50% inhibitory concentration (IC50) (commonly the concentration needed to halve the response being measured) was 16 nM.
Take `CC[C@@H](Nc1c(C#N)cnc2c(Cl)cc(N[C@@H](c3c[nH]nn3)c3ccccc3Cl)cc12)c1ccccc1` [Example 532, 8-chloro-6-(((R)-(2-chlorophenyl)(1H-1,2,3-triazol-4-yl)methyl)amino)-4-(((R)-1-phenylpropyl)amino)quinoline-3-carbonitrile]: the EC50 in experiment [1] is over 10000 nM. The IC50 in experiment [2] is over 10000 nM.
For `CC[C@@H](Nc1c(C#N)cnc2c(Cl)cc(N[C@H](c3c[nH]nn3)c3ccccc3Cl)cc12)c1ccccc1` [Example 533, 8-chloro-6-(((S)-(2-chlorophenyl)(1H-1,2,3-triazol-4-yl)methyl)amino)-4-(((R)-1-phenylpropyl)amino) quinoline-3-carbonitrile], in experiment [1], the EC50 turned out to be 660 nM. Moreover, the IC50 in experiment [2] worked out at 73 nM.
Take `N#Cc1cnc2c(Cl)cc(N[C@@H](c3ccccc3)c3cn(C4CCCC4)nn3)cc2c1Nc1ccc(Cl)c(Cl)c1F` [Example 534, (S)-8-chloro-6-(((1-cyclopentyl-1H-1,2,3-triazol-4-yl)(phenyl)methyl)amino)-4-((3,4-dichloro-2-fluorophenyl)amino) quinoline-3-carbonitrile]: the EC50 in experiment [1] worked out at 3150 nM. For the same compound, the IC50 in experiment [2] is 57 nM.
For `N#Cc1cnc2c(Cl)cc(N[C@@H](c3ccccc3)c3cn([C@@H]4CCNC[C@H]4O)nn3)cc2c1Nc1cccc(Cl)c1` [Example 535, 8-chloro-4-((3-chlorophenyl)amino)-6-(((S)-(1-((3R,4R)-3-hydroxypiperidin-4-yl)-1H-1,2,3-triazol-4-yl)(phenyl)methyl)amino) quinoline-3-carbonitrile], the EC50 in experiment [1] came to 500 nM. Besides, the IC50 in experiment [2] worked out at 4 nM.
Turning to `CC[C@@H](Nc1c(C#N)cnc2c(Cl)cc(N[C@@H](c3ccccc3)c3cn(CCCN4CCCC4)nn3)cc12)c1ccccc1` [Example 536, 8-chloro-6-(((S)-phenyl (1-(3-(pyrrolidin-1-yl)propyl)-1H-1,2,3-triazol-4-yl)methyl)amino)-4-(((R)-1-phenylpropyl)amino)quinoline-3-carbonitrile], the EC50 in experiment [1] amounted to 84 nM. For the same compound, the IC50 in experiment [2] stood at 3 nM.
Take `CC[C@@H](Nc1c(C#N)cnc2c(Cl)cc(N[C@@H](c3ccc(F)cc3)c3c[nH]nn3)cc12)c1ccccc1` [Example 537, 8-chloro-6-(((S)-(4-fluorophenyl)(1H-1,2,3-triazol-4-yl)methyl)amino)-4-(((R)-1-phenylpropyl)amino) quinoline-3-carbonitrile]: in experiment [1], the EC50 turned out to be 458 nM. Moreover, in experiment [2], the IC50 came to 17 nM.
For the compound `CC[C@@H](Nc1c(C#N)cnc2c(Cl)cc(N[C@@H](c3ccc(F)cc3)c3cn(C4CCN(C(C)(C)C)CC4)nn3)cc12)c1ccccc1` [Example 538, 6-(((S)-(1-(1-(tert-butyl)piperidin-4-yl)-1H-1,2,3-triazol-4-yl)(4-fluorophenyl)methyl)amino)-8-chloro-4-(((R)-1-phenylpropyl)amino) quinoline-3-carbonitrile], in experiment [1], the EC50 was determined as 58 nM. Besides, in experiment [2], the IC50 came to 3 nM.
Take `CC(C)(C)N1CCC(n2cc([C@@H](Nc3cc(Cl)c4ncc(C#N)c(N[C@H]5CCCOC5)c4c3)c3ccccc3)nn2)CC1` [Example 539, 6-(((S)-(1-(1-(tert-butyl)piperidin-4-yl)-1H-1,2,3-triazol-4-yl)(phenyl)methyl)amino)-8-chloro-4-(((S)-tetrahydro-2H-pyran-3-yl)amino)quinoline-3-carbonitrile]: the EC50 in experiment [1] turned out to be 3070 nM. Moreover, the IC50 in experiment [2] came to 337 nM.
`CC(C)(C)N1CCC(n2cc([C@@H](Nc3cc(Cl)c4ncc(C#N)c(N[C@@H]5CCCOC5)c4c3)c3ccccc3)nn2)CC1` [Example 540, 6-(((S)-(1-(1-(tert-butyl)piperidin-4-yl)-1H-1,2,3-triazol-4-yl)(phenyl)methyl)amino)-8-chloro-4-(((R)-tetrahydro-2H-pyran-3-yl)amino) quinoline-3-carbonitrile]: the EC50 in experiment [1] worked out at 5150 nM. In addition, in experiment [2], the IC50 stood at 404 nM.
Take `CC(C)n1cc([C@@H](Nc2cc(Cl)c3ncc(C#N)c(NC4CCN(C)CC4)c3c2)c2ccccc2)nn1` [Example 541, (S)-8-chloro-6-(((1-isopropyl-1H-1,2,3-triazol-4-yl)(phenyl)methyl)amino)-4-((1-methylpiperidin-4-yl)amino)quinoline-3-carbonitrile]: the EC50 in experiment [1] is over 10000 nM. The IC50 in experiment [2] was determined as 7310 nM.
Take `CC(C)n1cc([C@@H](Nc2cc(Cl)c3ncc(C#N)c(NCCCN(C)C)c3c2)c2ccccc2)nn1` [Example 542, (S)-8-chloro-4-((3-(dimethylamino)propyl)amino)-6-(((1-isopropyl-1H-1,2,3-triazol-4-yl)(phenyl)methyl)amino) quinoline-3-carbonitrile]: the EC50 in experiment [1] was over 10000 nM. For the same compound, the IC50 in experiment [2] is over 10000 nM.
For the compound `CC(C)(C)CNc1c(C#N)cnc2c(Cl)cc(N[C@@H](c3ccccc3)c3cn(C4CCN(C(C)(C)C)CC4)nn3)cc12` [Example 543, (S)-6-(((1-(1-(tert-butyl)piperidin-4-yl)-1H-1,2,3-triazol-4-yl)(phenyl)methyl)amino)-8-chloro-4-(neopentylamino)quinoline-3-carbonitrile], the concentration giving a half-maximal response (EC50) in experiment [1] was found to be 51 nM. The IC50 in experiment [2] is 7 nM.
With `N#Cc1cnc2c(Cl)cc(N[C@@H](c3ccccc3)c3cn(CC4(N5CCCC5)COC4)nn3)cc2c1Nc1ccc(F)c(Cl)c1` [Example 544], the EC50 in experiment [1] was found to be 1190 nM. The IC50 in experiment [2] was 94 nM.
The like results for `N#Cc1cnc2c(Cl)cc(N[C@@H](c3ccccc3)c3cn(CCCN4CCCC4)nn3)cc2c1Nc1ccc(F)c(Cl)c1` [Example 545, (S)-8-chloro-4-((3-chloro-4-fluorophenyl)amino)-6-((phenyl (1-(3-(pyrrolidin-1-yl)propyl)-1H-1,2,3-triazol-4-yl)methyl)amino)quinoline-3-carbonitrile] were, in that order, 88 nM and 3 nM.
Turning to `N#Cc1cnc2c(Cl)cc(N[C@@H](c3ccccc3)c3cn(CCN4CCCC4)nn3)cc2c1Nc1ccc(F)c(Cl)c1` [Example 546, (S)-8-chloro-4-((3-chloro-4-fluorophenyl)amino)-6-((phenyl (1-(2-(pyrrolidin-1-yl)ethyl)-1H-1,2,3-triazol-4-yl)methyl)amino)quinoline-3-carbonitrile], the EC50 in experiment [1] worked out at 200 nM. Moreover, the concentration for half-maximal inhibition (IC50) in experiment [2] was determined as 8 nM.
The matching figures for `CC(C)n1cc([C@@H](Nc2cc(Cl)c3ncc(C#N)c(Nc4ccc(F)c(Cl)c4)c3c2)c2cccc(N3CCCCC3=O)c2)nn1` [Example 547, (S)-8-chloro-4-((3-chloro-4-fluorophenyl)amino)-6-(((1-isopropyl-1H-1,2,3-triazol-4-yl) (3-(2-oxopiperidin-1-yl)phenyl)methyl)amino) quinoline-3-carbonitrile]: 508 nM and 2 nM.
